Data as given in patent US6355799B1, “Substituted benzene compounds, process for their preparation, and herbicidal and defoliant compositions containing them” (ISK Americas Incorporated, priority 1997, dated 2002).

Key:
Type in all cases: in vivo
[1] = system: redroot pigweed (Amaranthus retroflexus, AMARE); experiment: Pre-emerge test, greenhouse herbicide activity screening; settings: phytotoxicity rating 0-100, 14 days after application
Outline: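 Sandy loam pots; pre-emerge: sown 1 d pre-spray, surface-watered after, then bottom-watered. Post-emerge: sown 8–21 d before, 2–3 leaf stage, + 0.25% v/v NIS, bottom-watered. Acetone, 187 l/ha track spray, 15–1000 g ai/ha. 0–100 injury score, day 14.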

[2] = system: sicklepod (Cassia obtusifolia, CASOB); experiment: as above; settings: phytotoxicity rating 0-100, 14 days after application
Outline: (§1)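 Rating: 0–100 visual injury, 14 DAA. Application: acetone, 187 l/ha, 15–1000 g ai/ha, flat-fan track sprayer with nozzle 40–45 cm above soil or canopy. Post-emerge runs used 0.25% v/v surfactant on 2–3 leaf plants.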

[3] = system: lambsquarters (Chenopodium album, CHEAL); experiment: as above; settings: phytotoxicity rating 0-100, 14 days after application
Outline: as §1

[4] = system: barnyardgrass (Echinochloa crus-galli, ECHCG); experiment: as above; settings: phytotoxicity rating 0-100, 14 days after application
Outline: as §1

[5] = system: ivyleaf morningglory (Ipomoea hederacea, IPOHE); experiment: as above; settings: phytotoxicity rating 0-100, 14 days after application
Outline: as §1

[6] = system: johnsongrass (Sorghum halepense, SORHA); experiment: as above; settings: phytotoxicity rating 0-100, 14 days after application
Outline: as §1

[7] = system: large crabgrass (Digitaria sanguinalis, DIGSA); experiment: as above; settings: phytotoxicity rating 0-100, 14 days after application
Outline: as §1

[8] = system: velvetleaf (Abutilon theophrasti, ABUTH); experiment: as above; settings: phytotoxicity rating 0-100, 14 days after application
Outline: as §1

[9] = system: green foxtail (Setaria viridis, SETVI); experiment: as above; settings: phytotoxicity rating 0-100, 14 days after application
Outline: as §1

[10] = system: field corn (Zea mays L., var. Dekalb 535, CORN); experiment: Pre-emerge test, crop safety; settings: crop damage rating 0-100, 14 days after application
Outline: (§2)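 Applied at 15–1000 g ai/ha from acetone in 187 l/ha spray volume. Post-emergence applications included 0.25% v/v non-ionic surfactant and reached plants sown 8–21 days before. Pre-emergence applications were incorporated by surface watering. Efficacy or crop damage was rated on a 0–100 scale after 14 days.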

[11] = system: upland rice (Oryza sp., var. Tebonnet, RICE); experiment: Pre-emerge test, crop safety; settings: crop damage rating 0-100, 14 days after application
Outline: as §2

[12] = system: sicklepod (Cassia obtusifolia, CASOB); experiment: Post-emerge test, greenhouse herbicide activity screening; settings: post-emerge, 14 days after application, rating scale 0-100
Outline: (§3)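 Compounds in acetone were track-sprayed at 15-1000 g ai/ha (187 l/ha) on sandy loam pots: pre-emerge one day after seeding, post-emerge at 2-3 leaf stage with 0.25% v/v non-ionic surfactant. Phytotoxicity was rated 14 days later on a 0 (no damage) to 100 (complete death) scale.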

[13] = system: lambsquarters (Chenopodium album, CHEAL); experiment: as above; settings: post-emerge, 14 days after application, rating scale 0-100
Outline: as §3

[14] = system: barnyardgrass (Echinochloa crus-galli, ECHCG); experiment: as above; settings: post-emerge, 14 days after application, rating scale 0-100
Outline: as §3

[15] = system: redroot pigweed (Amaranthus retroflexus, AMARE); experiment: as above; settings: post-emerge, 14 days after application
Outline: as §3

[16] = system: ivyleaf morningglory (Ipomoea hederacea, IPOHE); experiment: as above; settings: post-emerge, 14 days after application, rating scale 0-100
Outline: as §3

[17] = system: johnsongrass (Sorghum halepense, SORHA); experiment: as above; settings: post-emerge, 14 days after application, rating scale 0-100
Outline: as §3

[18] = system: large crabgrass (Digitaria sanguinalis, DIGSA); experiment: as above; settings: post-emerge, 14 days after application, rating scale 0-100
Outline: as §3

[19] = system: velvetleaf (Abutilon theophrasti, ABUTH); experiment: as above; settings: post-emerge, 14 days after application, rating scale 0-100
Outline: as §3

[20] = system: green foxtail (Setaria viridis, SETVI); experiment: as above; settings: post-emerge, 14 days after application, rating scale 0-100
Outline: as §3

[21] = system: field corn (Zea mays L., var. Dekalb 535, CORN); experiment: Post-emerge test, crop safety; settings: post-emerge, 14 days after application, rating scale 0-100
Outline: (§4)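 Plants grown in 10 cm pots of sandy loam mix received acetone-dissolved compounds through a moving flat-fan nozzle. Doses ranged from 15 to 1000 g ai/ha. Pre-emerge pots were seeded one day earlier, post-emerge pots 8–21 days earlier. Fourteen days on, each pot was graded 0–100 for damage.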

[22] = system: upland rice (Oryza sp., var. Tebonnet, RICE); experiment: Post-emerge test, crop safety; settings: post-emerge, 14 days after application, rating scale 0-100
Outline: as §4

[23] = 63 g ai/ha, rating scale 0-100 (0 no damage, 100 complete death)
[24] = 250 g ai/ha, rating scale 0-100

SMILES: Nn1c(C(F)(F)F)cc(=O)n(-c2c(F)cc(Cl)c(O)c2NC(=O)c2ccc3ccccc3c2)c1=O [Compound 2-192]
- Pre-emerge Herbicidal Activity AMARE ([1]; 250 g ai/ha): 90
- Pre-emerge Herbicidal Activity CASOB ([2]; 250 g ai/ha): 0
- Pre-emerge Herbicidal Activity CHEAL ([3]; 250 g ai/ha): 80
- Pre-emerge Herbicidal Activity ECHCG ([4]; 250 g ai/ha): 0
- Pre-emerge Herbicidal Activity IPOHE ([5]; 250 g ai/ha): 30
- Pre-emerge Herbicidal Activity SORHA ([6]; 250 g ai/ha): 0
- Pre-emerge Herbicidal Activity DIGSA ([7]; 250 g ai/ha): 0
- Pre-emerge Herbicidal Activity ABUTH ([8]; 250 g ai/ha): 85
- Pre-emerge Herbicidal Activity SETVI ([9]; 250 g ai/ha): 0
- Pre-emerge Herbicidal Activity CORN ([10]; 250 g ai/ha): 0
- Pre-emerge Herbicidal Activity RICE ([11]; 250 g ai/ha): 0
- phytotoxicity rating CASOB ([12]; 63 g ai/ha): 40
- phytotoxicity rating CASOB ([12]; 250 g ai/ha): 60
- phytotoxicity rating CHEAL ([13]; 63 g ai/ha): 60
- phytotoxicity rating CHEAL ([13]; 250 g ai/ha): 50
- phytotoxicity rating ECHCG ([14]; 63 g ai/ha): 0
- phytotoxicity rating ECHCG ([14]; 250 g ai/ha): 0
- phytotoxicity rating AMARE [15, 23]: 70
- phytotoxicity rating AMARE [15, 24]: 70
- phytotoxicity rating IPOHE ([16]; 63 g ai/ha): 50
- phytotoxicity rating IPOHE ([16]; 250 g ai/ha): 70
- phytotoxicity rating SORHA ([17]; 63 g ai/ha): 0
- phytotoxicity rating SORHA ([17]; 250 g ai/ha): 0
- phytotoxicity rating DIGSA ([18]; 63 g ai/ha): 0
- phytotoxicity rating DIGSA ([18]; 250 g ai/ha): 0
- phytotoxicity rating ABUTH ([19]; 63 g ai/ha): 85
- phytotoxicity rating ABUTH ([19]; 250 g ai/ha): 85
- phytotoxicity rating SETVI ([20]; 63 g ai/ha): 0
- phytotoxicity rating SETVI ([20]; 250 g ai/ha): 0
- phytotoxicity rating CORN (crop damage) ([21]; 63 g ai/ha): 5
- phytotoxicity rating CORN (crop damage) ([21]; 250 g ai/ha): 15
- phytotoxicity rating RICE (crop damage) ([22]; 63 g ai/ha): 0
- phytotoxicity rating RICE (crop damage) ([22]; 250 g ai/ha): 20

SMILES: COc1c(Cl)cc(F)c(-n2c(=O)cc(C(F)(F)F)n(C)c2=O)c1NC(=O)Nc1ccccc1 [Compound 3-4]
- Pre-emerge Herbicidal Activity AMARE ([1]; 63 g ai/ha): 0
- Pre-emerge Herbicidal Activity AMARE ([1]; 250 g ai/ha): 100
- Pre-emerge Herbicidal Activity CASOB ([2]; 63 g ai/ha): 0
- Pre-emerge Herbicidal Activity CASOB ([2]; 250 g ai/ha): 60
- Pre-emerge Herbicidal Activity CHEAL ([3]; 63 g ai/ha): 0
- Pre-emerge Herbicidal Activity CHEAL ([3]; 250 g ai/ha): 100
- Pre-emerge Herbicidal Activity ECHCG ([4]; 63 g ai/ha): 0
- Pre-emerge Herbicidal Activity ECHCG ([4]; 250 g ai/ha): 0
- Pre-emerge Herbicidal Activity IPOHE ([5]; 63 g ai/ha): 0
- Pre-emerge Herbicidal Activity IPOHE ([5]; 250 g ai/ha): 50
- Pre-emerge Herbicidal Activity SORHA ([6]; 63 g ai/ha): 0
- Pre-emerge Herbicidal Activity SORHA ([6]; 250 g ai/ha): 10
- Pre-emerge Herbicidal Activity DIGSA ([7]; 63 g ai/ha): 0
- Pre-emerge Herbicidal Activity DIGSA ([7]; 250 g ai/ha): 10
- Pre-emerge Herbicidal Activity ABUTH ([8]; 63 g ai/ha): 0
- Pre-emerge Herbicidal Activity ABUTH ([8]; 250 g ai/ha): 100
- Pre-emerge Herbicidal Activity SETVI ([9]; 63 g ai/ha): 20
- Pre-emerge Herbicidal Activity SETVI ([9]; 250 g ai/ha): 60
- Pre-emerge Herbicidal Activity CORN ([10]; 63 g ai/ha): 0
- Pre-emerge Herbicidal Activity CORN ([10]; 250 g ai/ha): 0
- Pre-emerge Herbicidal Activity RICE ([11]; 63 g ai/ha): 0
- Pre-emerge Herbicidal Activity RICE ([11]; 250 g ai/ha): 15
- phytotoxicity rating CASOB ([12]; 63 g ai/ha): 0
- phytotoxicity rating CASOB ([12]; 250 g ai/ha): 0
- phytotoxicity rating CHEAL ([13]; 63 g ai/ha): 0
- phytotoxicity rating CHEAL ([13]; 250 g ai/ha): 0
- phytotoxicity rating ECHCG ([14]; 63 g ai/ha): 0
- phytotoxicity rating ECHCG ([14]; 250 g ai/ha): 0
- phytotoxicity rating AMARE [15, 23]: 0
- phytotoxicity rating AMARE [15, 24]: 0
- phytotoxicity rating IPOHE ([16]; 63 g ai/ha): 0
- phytotoxicity rating IPOHE ([16]; 250 g ai/ha): 0
- phytotoxicity rating SORHA ([17]; 63 g ai/ha): 0
- phytotoxicity rating SORHA ([17]; 250 g ai/ha): 0
- phytotoxicity rating DIGSA ([18]; 63 g ai/ha): 0
- phytotoxicity rating DIGSA ([18]; 250 g ai/ha): 0
- phytotoxicity rating ABUTH ([19]; 63 g ai/ha): 40
- phytotoxicity rating ABUTH ([19]; 250 g ai/ha): 50
- phytotoxicity rating SETVI ([20]; 63 g ai/ha): 0
- phytotoxicity rating SETVI ([20]; 250 g ai/ha): 0
- phytotoxicity rating CORN (crop damage) ([21]; 63 g ai/ha): 0
- phytotoxicity rating CORN (crop damage) ([21]; 250 g ai/ha): 0
- phytotoxicity rating RICE (crop damage) ([22]; 63 g ai/ha): 0
- phytotoxicity rating RICE (crop damage) ([22]; 250 g ai/ha): 10
